Values after ≈ are worked out from the molar mass of the structure shown.
System: Klebsiella pneumoniae
Assay: Antibacterial activity against extended-spectrum beta-lactamase producin Klebsiella pneumoniae 12-4 after 18 to 24 hrs by standard twofold serial dilution method
Type: functional

Compound	MIC
CCO/N=C1/CN(c2c(F)cc3c(=O)c(C(=O)O)cn([C@@H]4C[C@@H]4F)c3c2Cl)CC1CN (some centres not stated)	32 µg/mL (≈ 70.4 µM)

System: Pseudomonas aeruginosa
Assay: Antibacterial activity against Pseudomonas aeruginosa 12-12 after 18 to 24 hrs by standard twofold serial dilution method
Type: functional

Compound	MIC
CCO/N=C1/CN(c2c(F)cc3c(=O)c(C(=O)O)cn([C@@H]4C[C@@H]4F)c3c2Cl)CC1CN (some centres not stated)	4 µg/mL (≈ 8.79 µM)

System: Klebsiella pneumoniae
Assay: Antibacterial activity against extended-spectrum beta-lactamase producin Klebsiella pneumoniae 12-7 after 18 to 24 hrs by standard twofold serial dilution method
Type: functional

Compound	MIC
CCO/N=C1/CN(c2c(F)cc3c(=O)c(C(=O)O)cn([C@@H]4C[C@@H]4F)c3c2Cl)CC1CN (some centres not stated)	4 µg/mL (≈ 8.79 µM)

System: Staphylococcus aureus
Assay: Antibacterial activity against methicillin-resistant Staphylococcus aureus 12-4 after 18 to 24 hrs by standard twofold serial dilution method
Type: functional

Compound	MIC
CCO/N=C1/CN(c2c(F)cc3c(=O)c(C(=O)O)cn([C@@H]4C[C@@H]4F)c3c2Cl)CC1CN (some centres not stated)	16 µg/mL (≈ 35.2 µM)

System: Mycobacterium tuberculosis
Assay: Antimycobacterial activity against Mycobacterium tuberculosis H37Rv ATCC 27294 by MABA method
Type: functional

Compound	MIC
CCO/N=C1/CN(c2c(F)cc3c(=O)c(C(=O)O)cn([C@@H]4C[C@@H]4F)c3c2Cl)CC1CN (some centres not stated)	4 µg/mL (≈ 8.79 µM)

System: Klebsiella pneumoniae
Assay: Antibacterial activity against Klebsiella pneumoniae 12-1 after 18 to 24 hrs by standard twofold serial dilution method
Type: functional

Compound	MIC
CCO/N=C1/CN(c2c(F)cc3c(=O)c(C(=O)O)cn([C@@H]4C[C@@H]4F)c3c2Cl)CC1CN (some centres not stated)	0.5 µg/mL (≈ 1.1 µM)

System: Klebsiella pneumoniae
Assay: Antibacterial activity against extended-spectrum beta-lactamase producin Klebsiella pneumoniae 12-3 after 18 to 24 hrs by standard twofold serial dilution method
Type: functional

Compound	MIC
CCO/N=C1/CN(c2c(F)cc3c(=O)c(C(=O)O)cn([C@@H]4C[C@@H]4F)c3c2Cl)CC1CN (some centres not stated)	32 µg/mL (≈ 70.4 µM)

System: Escherichia coli
Assay: Antibacterial activity against extended-spectrum beta-lactamase producing Escherichia coli 12-3 after 18 to 24 hrs by standard twofold serial dilution method
Type: functional

Compound	MIC
CCO/N=C1/CN(c2c(F)cc3c(=O)c(C(=O)O)cn([C@@H]4C[C@@H]4F)c3c2Cl)CC1CN (some centres not stated)	32 µg/mL (≈ 70.4 µM)

System: Staphylococcus aureus
Assay: Antibacterial activity against methicillin-sensitive Staphylococcus aureus 12-1 after 18 to 24 hrs by standard twofold serial dilution method
Type: functional

Compound	MIC
CCO/N=C1/CN(c2c(F)cc3c(=O)c(C(=O)O)cn([C@@H]4C[C@@H]4F)c3c2Cl)CC1CN (some centres not stated)	0.25 µg/mL (≈ 0.55 µM)

System: Staphylococcus aureus
Assay: Antibacterial activity against methicillin-resistant Staphylococcus aureus 12-5 after 18 to 24 hrs by standard twofold serial dilution method
Type: functional

Compound	MIC
CCO/N=C1/CN(c2c(F)cc3c(=O)c(C(=O)O)cn([C@@H]4C[C@@H]4F)c3c2Cl)CC1CN (some centres not stated)	16 µg/mL (≈ 35.2 µM)

System: Staphylococcus aureus
Assay: Antibacterial activity against methicillin-sensitive Staphylococcus aureus 12-4 after 18 to 24 hrs by standard twofold serial dilution method
Type: functional

Compound	MIC
CCO/N=C1/CN(c2c(F)cc3c(=O)c(C(=O)O)cn([C@@H]4C[C@@H]4F)c3c2Cl)CC1CN (some centres not stated)	0.25 µg/mL (≈ 0.55 µM)

System: Escherichia coli
Assay: Antibacterial activity against Escherichia coli 12-1 after 18 to 24 hrs by standard twofold serial dilution method
Type: functional

Compound	MIC
CCO/N=C1/CN(c2c(F)cc3c(=O)c(C(=O)O)cn([C@@H]4C[C@@H]4F)c3c2Cl)CC1CN (some centres not stated)	2 µg/mL (≈ 4.4 µM)

System: Staphylococcus epidermidis
Assay: Antibacterial activity against methicillin-sensitive Staphylococcus epidermidis 12-6 after 18 to 24 hrs by standard twofold serial dilution method
Type: functional

Compound	MIC
CCO/N=C1/CN(c2c(F)cc3c(=O)c(C(=O)O)cn([C@@H]4C[C@@H]4F)c3c2Cl)CC1CN (some centres not stated)	0.25 µg/mL (≈ 0.55 µM)

System: Staphylococcus aureus
Assay: Antibacterial activity against methicillin-sensitive Staphylococcus aureus 12-5 after 18 to 24 hrs by standard twofold serial dilution method
Type: functional

Compound	MIC
CCO/N=C1/CN(c2c(F)cc3c(=O)c(C(=O)O)cn([C@@H]4C[C@@H]4F)c3c2Cl)CC1CN (some centres not stated)	0.25 µg/mL (≈ 0.55 µM)

System: Staphylococcus epidermidis
Assay: Antibacterial activity against methicillin-sensitive Staphylococcus epidermidis 12-1 after 18 to 24 hrs by standard twofold serial dilution method
Type: functional

Compound	MIC
CCO/N=C1/CN(c2c(F)cc3c(=O)c(C(=O)O)cn([C@@H]4C[C@@H]4F)c3c2Cl)CC1CN (some centres not stated)	0.5 µg/mL (≈ 1.1 µM)

System: Klebsiella pneumoniae
Assay: Antibacterial activity against Klebsiella pneumoniae 12-4 after 18 to 24 hrs by standard twofold serial dilution method
Type: functional

Compound	MIC
CCO/N=C1/CN(c2c(F)cc3c(=O)c(C(=O)O)cn([C@@H]4C[C@@H]4F)c3c2Cl)CC1CN (some centres not stated)	1 µg/mL (≈ 2.2 µM)

System: Klebsiella pneumoniae
Assay: Antibacterial activity against Klebsiella pneumoniae 12-2 after 18 to 24 hrs by standard twofold serial dilution method
Type: functional

Compound	MIC
CCO/N=C1/CN(c2c(F)cc3c(=O)c(C(=O)O)cn([C@@H]4C[C@@H]4F)c3c2Cl)CC1CN (some centres not stated)	1 µg/mL (≈ 2.2 µM)

System: Pseudomonas aeruginosa
Assay: Antibacterial activity against Pseudomonas aeruginosa 12-14 after 18 to 24 hrs by standard twofold serial dilution method
Type: functional

Compound	MIC
CCO/N=C1/CN(c2c(F)cc3c(=O)c(C(=O)O)cn([C@@H]4C[C@@H]4F)c3c2Cl)CC1CN (some centres not stated)	32 µg/mL (≈ 70.4 µM)

System: Staphylococcus epidermidis
Assay: Antibacterial activity against methicillin-sensitive Staphylococcus epidermidis 12-8 after 18 to 24 hrs by standard twofold serial dilution method
Type: functional

Compound	MIC
CCO/N=C1/CN(c2c(F)cc3c(=O)c(C(=O)O)cn([C@@H]4C[C@@H]4F)c3c2Cl)CC1CN (some centres not stated)	2 µg/mL (≈ 4.4 µM)

System: Staphylococcus epidermidis
Assay: Antibacterial activity against methicillin-resistant Staphylococcus epidermidis 12-6 after 18 to 24 hrs by standard twofold serial dilution method
Type: functional

Compound	MIC
CCO/N=C1/CN(c2c(F)cc3c(=O)c(C(=O)O)cn([C@@H]4C[C@@H]4F)c3c2Cl)CC1CN (some centres not stated)	16 µg/mL (≈ 35.2 µM)

System: Escherichia coli
Assay: Antibacterial activity against extended-spectrum beta-lactamase producing Escherichia coli 12-14 after 18 to 24 hrs by standard twofold serial dilution method
Type: functional

Compound	MIC
CCO/N=C1/CN(c2c(F)cc3c(=O)c(C(=O)O)cn([C@@H]4C[C@@H]4F)c3c2Cl)CC1CN (some centres not stated)	128 µg/mL (≈ 281 µM)

System: Staphylococcus epidermidis
Assay: Antibacterial activity against methicillin-sensitive Staphylococcus epidermidis 12-3 after 18 to 24 hrs by standard twofold serial dilution method
Type: functional

Compound	MIC
CCO/N=C1/CN(c2c(F)cc3c(=O)c(C(=O)O)cn([C@@H]4C[C@@H]4F)c3c2Cl)CC1CN (some centres not stated)	1 µg/mL (≈ 2.2 µM)

System: Staphylococcus aureus
Assay: Antibacterial activity against methicillin-resistant Staphylococcus aureus 12-2 after 18 to 24 hrs by standard twofold serial dilution method
Type: functional

Compound	MIC
CCO/N=C1/CN(c2c(F)cc3c(=O)c(C(=O)O)cn([C@@H]4C[C@@H]4F)c3c2Cl)CC1CN (some centres not stated)	16 µg/mL (≈ 35.2 µM)

System: Escherichia coli
Assay: Antibacterial activity against Escherichia coli ATCC 25922 after 18 to 24 hrs by standard twofold serial dilution method
Type: functional

Compound	MIC
CCO/N=C1/CN(c2c(F)cc3c(=O)c(C(=O)O)cn([C@@H]4C[C@@H]4F)c3c2Cl)CC1CN (some centres not stated)	0.5 µg/mL (≈ 1.1 µM)

System: Escherichia coli
Assay: Antibacterial activity against extended-spectrum beta-lactamase producing Escherichia coli 12-15 after 18 to 24 hrs by standard twofold serial dilution method
Type: functional

Compound	MIC
CCO/N=C1/CN(c2c(F)cc3c(=O)c(C(=O)O)cn([C@@H]4C[C@@H]4F)c3c2Cl)CC1CN (some centres not stated)	> 128 µg/mL

System: Staphylococcus aureus
Assay: Antibacterial activity against Staphylococcus aureus ATCC 25923 after 18 to 24 hrs by standard twofold serial dilution method
Type: functional

Compound	MIC
CCO/N=C1/CN(c2c(F)cc3c(=O)c(C(=O)O)cn([C@@H]4C[C@@H]4F)c3c2Cl)CC1CN (some centres not stated)	0.5 µg/mL (≈ 1.1 µM)

System: Streptococcus pneumoniae
Assay: Antibacterial activity against Streptococcus pneumoniae 12-18 after 18 to 24 hrs by standard twofold serial dilution method
Type: functional

Compound	MIC
CCO/N=C1/CN(c2c(F)cc3c(=O)c(C(=O)O)cn([C@@H]4C[C@@H]4F)c3c2Cl)CC1CN (some centres not stated)	4 µg/mL (≈ 8.79 µM)

System: Klebsiella pneumoniae
Assay: Antibacterial activity against extended-spectrum beta-lactamase producin Klebsiella pneumoniae 12-14 after 18 to 24 hrs by standard twofold serial dilution method
Type: functional

Compound	MIC
CCO/N=C1/CN(c2c(F)cc3c(=O)c(C(=O)O)cn([C@@H]4C[C@@H]4F)c3c2Cl)CC1CN (some centres not stated)	64 µg/mL (≈ 141 µM)

System: Escherichia coli
Assay: Antibacterial activity against extended-spectrum beta-lactamase producing Escherichia coli 12-2 after 18 to 24 hrs by standard twofold serial dilution method
Type: functional

Compound	MIC
CCO/N=C1/CN(c2c(F)cc3c(=O)c(C(=O)O)cn([C@@H]4C[C@@H]4F)c3c2Cl)CC1CN (some centres not stated)	128 µg/mL (≈ 281 µM)

System: Staphylococcus aureus
Assay: Antibacterial activity against methicillin-sensitive Staphylococcus aureus 12-2 after 18 to 24 hrs by standard twofold serial dilution method
Type: functional

Compound	MIC
CCO/N=C1/CN(c2c(F)cc3c(=O)c(C(=O)O)cn([C@@H]4C[C@@H]4F)c3c2Cl)CC1CN (some centres not stated)	0.125 µg/mL (≈ 0.275 µM)

System: Staphylococcus epidermidis
Assay: Antibacterial activity against methicillin-resistant Staphylococcus epidermidis 12-1 after 18 to 24 hrs by standard twofold serial dilution method
Type: functional

Compound	MIC
CCO/N=C1/CN(c2c(F)cc3c(=O)c(C(=O)O)cn([C@@H]4C[C@@H]4F)c3c2Cl)CC1CN (some centres not stated)	4 µg/mL (≈ 8.79 µM)

System: Streptococcus pneumoniae
Assay: Antibacterial activity against Streptococcus pneumoniae ATCC 49619 after 18 to 24 hrs by standard twofold serial dilution method
Type: functional

Compound	MIC
CCO/N=C1/CN(c2c(F)cc3c(=O)c(C(=O)O)cn([C@@H]4C[C@@H]4F)c3c2Cl)CC1CN (some centres not stated)	1 µg/mL (≈ 2.2 µM)

— ChEMBL document CHEMBL3352227, “Synthesis, antimycobacterial and antibacterial evaluation of l-[(1R, 2S)-2-fluorocyclopropyl]fluoroquinolone derivatives containing an oxime functional moiety” (Eur J Med Chem, 2014)
